Data on two molecules can be found in patent US9999596B2 (priority 2004, dated 2018).

The term MRT denotes the average time that molecules of a dose stay in the body. One may read the AUC(0-inf) as the area under the concentration-time curve extrapolated to infinity. A low value points to low exposure. The term AUC(0-t) denotes exposure summed from dosing to a finite time, without extrapolation to infinity. High values mean more exposure, low ones less exposure. By bioavailability is commonly meant the share of a dose that reaches the circulation, judged against a reference dose that is usually intravenous. By AUC is commonly meant the area under the concentration-time curve, a measure of exposure. The low end stands for less exposure, the high end for more exposure. Broadly, the half-life is the time in which the quantity being followed falls by half. Read a low half-life as rapid decline. As a reminder, the clearance is the volume of plasma or blood freed of the substance per unit of time. A high value points to a high capacity for elimination. As usually defined, the Cmax is the maximum level reached in the sampled fluid or tissue. The Vd is the apparent volume that relates the amount in the body to the concentration in plasma or blood. Read a low Vd as little distribution into tissue. By Vd/F is commonly meant the apparent distribution volume after extravascular dosing.

SMILES strings stand for the structures. Like-named read-outs stand apart in the source and are kept apart here.

In data set [1] the test system is human umbilical venular endothelial cells. The note with it: cited from earlier work.
In data set [2] the test system is A2780 (sensitive) human ovarian carcinoma cells. Kind of data set: cells. Type of data set: cell-based. The following applies: A2780, 48 h, read-out: IC50 (nM) A2780.
In data set [3] the test system is A2780/AD (multidrug resistant) human ovarian carcinoma cells. Kind of data set: cells. Type of data set: cell-based. The following applies: A2780AD, 48 h, read-out: IC50 (nM) A2780/AD.
For data set [4] the following is noted: female, Fischer 344, rat, in vivo.
The nature of the next data set: in vivo. The note with it: female, Fischer 344, rat.
The subject of the next data set is Mat B-III tumors. Kind of data set: Pharmacodynamic tumor-growth delay study.

From the text for Mat B-III tumors: Mat B-III cells were obtained from American Type Culture Collection (Rockville, Md.). The cells were maintained in culture in vitro in RMPI medium supplemented with 10% fetal bovine serum, 100 units/ml penicillin-streptomycin sulfate, 2% sodium bicarbonate and 1% non-essential amino acids.
Female Fischer 344 rats (160-180 g) were purchased from Hilltop Laboratories (Scottdale, Pa.) and allowed to acclimate for one week. The rats were housed, two per cage and tagged to facilitate identification. Mat B-III cells grown in serum-containing medium were washed with phosphate buffer and trypsinized for 5 minutes. The cells were collected and centrifuged for 5 minutes. The cell pellet was resuspended in Dulbecco's phosphate buffer (DPBS) and centrifuged as above. This process was repeated three times. Finally the cell pellet (2×10^6 cells/ml) was resuspended and the cells were injected (0.5 ml=1×10^6 cells) subcutaneously into the back of the rats. The rats were weighed daily and examined for tumor development and distress. The tumor size was measured in two dimensions using calipers and the tumor mass was calculated as described in Equation 4.5.
Once the tumors reached a size of approximately 1 cm^3, (500-1000 mg) the rats were randomized into five experimental groups. […] All treatments were administered s.c. in the vicinity of the tumor. The rats were monitored daily for weight loss, tumor growth, skin lesions, distress or ascites. Body weight loss and lethal toxicity were taken into account when evaluating the toxic effects induced by the drug treatment. […]
Therefore, to adequately compare the various treatments, the rats were divided into two groups of 16 rats each based on the size of the tumors on day 10 following inoculation (small tumor group: size ˜500 mg and large tumor group: size ˜1000 mg). […] The dimensions of the tumors were measured prior to and post administration of the treatments in the case of the hydrogel groups to account for the volume of hydrogel.

As to `CC[C@@]1(O)C(=O)OCc2c1cc1n(c2=O)Cc2cc3ccccc3nc2-1` [CPT, Camptothecin], the “growth of human umbilical venular endothelial cells in vitro” value in data set [1] was “inhibited the growth”.
For `CC[C@@]1(O)C(=O)OCc2c1cc1n(c2=O)Cc2cc3c(CN(C)C)c(O)ccc3nc2-1` [TPT, 9-amino-dimethyl-10-hydroxycamptothecin], the IC50 worked out at 25.3 ± 1.4 nM in data set [2] and 55.9 ± 2.67 nM in data set [3]. The “MAT (mean absorption time)” value in data set [4] (10 mg/kg) is listed as 10.44 h. The Alpha in data set [4] (iv, 10 mg/kg) came out at 0.84 h⁻¹. The molecule also came in with a Cl in data set [4] (iv, 10 mg/kg) of 444.59 mL/h. Further, the MRT was 3.92 h in data set [4] (iv, 10 mg/kg); 2.95 h in the data set “in vivo” (iv, 10 mg/kg); 13.4 h in “in vivo” (sc, 10 mg/kg). This molecule also gave a Vz/F in data set [4] (iv, 10 mg/kg) of 3552.68 mL. Moreover, the kel was determined as 0.14 h⁻¹ in data set [4] (iv, 10 mg/kg) and 0.10 h⁻¹ in data set [4] (sc, 10 mg/kg). In data set [4] (sc), the “dose fraction (F) that appeared in the systemic circulation” value was found to be 92%. For the same molecule, the Vz in data set [4] (sc, 10 mg/kg) worked out at 5483.75 mL. The tmax in data set [4] (sc, 10 mg/kg) amounted to 1.56 h; in the data set “in vivo” (sc, 10 mg/kg, tmax), 2.67 h. Besides, in data set [1], the “growth of human umbilical venular endothelial cells in vitro” value is “inhibited the growth”. Also, the AUC(0-inf) in the data set “in vivo” (iv, 10 mg/kg) stood at 5910 ng·h/mL; in the data set “in vivo” (sc, 10 mg/kg), 5380 ng·h/mL. The AUC(0-t) in “in vivo” (iv, 10 mg/kg) is 5790 ng·h/mL; in the data set “in vivo” (sc, 10 mg/kg), 4470 ng·h/mL. Also, the bioavailability came to 100% in “in vivo” (iv, 10 mg/kg); 98.8% in the data set “in vivo” (sc); 91.8% in the data set “in vivo” (sc, 10 mg/kg). For the same molecule, the AUC was found to be 5960 ng·h/mL in the data set “in vivo” (iv, 10 mg/kg) and 5800 ± 894 ng·h/mL in the data set “in vivo” (sc, 10 mg/kg). The half-life in the data set “in vivo” (iv, 10 mg/kg, Alpha-t1/2) is 0.84 ± 0.07 h; in “in vivo” (iv, 10 mg/kg, t1/2), 6.16 ± 0.56 h; in the data set “in vivo” (sc, 10 mg/kg, Ka-t1/2), 0.32 ± 0.05 h; in the data set “in vivo” (sc, 10 mg/kg, t1/2), 6.42 ± 1.99 h. Also, the clearance in the data set “in vivo” (iv, 10 mg/kg, Cl) was 7.55 mL/min. The Cmax in the data set “in vivo” (iv, 10 mg/kg) was 4360 ng/mL; in “in vivo” (sc, 10 mg/kg), 468 ± 177 ng/mL. Further, the Vd in the data set “in vivo” (iv, 10 mg/kg, Vss) was 1.32 L; in “in vivo” (iv, 10 mg/kg, Vz), 3.55 L. Besides, the Vd/F in the data set “in vivo” (sc, 10 mg/kg, Vss/F) turned out to be 6.07 L; in “in vivo” (sc, 10 mg/kg, Vz/F) it was 5.97 L. The “effect on tumor size, small tumor group” value with Mat B-III tumors (5 mg/kg s.c., tumors ~500 mg, 16 days) is given as “very effective initially in reducing tumor size”. For the same molecule, the “effect on tumor size, large tumor group” value in the data set on Mat B-III tumors (5 mg/kg s.c., tumors ~1000 mg) is recorded as “initially effective”. Also, the “appearance of resected tumors” value in the data set on Mat B-III tumors (at completion of study) is “highly vascularized and firm”.
